Assay results reported in article PMC6150271, “‘Click Chemistry’ Synthesis of Novel Natural Product-Like Caged Xanthones Bearing a 1,2,3-Triazole Moiety with Improved Druglike Properties as Orally Active Antitumor Agents” (Molecules : A Journal of Synthetic Chemistry and Natural …, 2017).
Values after ≈ are worked out from the molar mass of the structure shown. Where two headings read alike, the source gives them in different places. Marks after values point to notes of the source that are not given here.

Experiments:
[1] = system: human lung carcinoma A549 cell line; experiment: MTT antiproliferative assay, A549; type: cell-based; details: for IC50: Homo sapiens, A549, MTT, 72 h
Method: (§1) The antiproliferative activity of the ten synthesized caged xanthone derivatives, as well as the lead compound DDO-6101 and GA were assessed with the 3-(4,5-dimethylthiazol-2-yl)-2,5-diphenyltetrazolium bromide (MTT) assay, as previously reported, against six human cancer cell lines, including the human lung carcinoma A549 cell line, taxol-resistant A549 cell line (A549/taxol), cisplatin-resistant A549 cell line (A549/cisplatin), the human hepatocellular carcinoma HepG2 cell line, the human colon carcinoma HCT-116 cell line, and the human glioblastoma U251 cell line. DDO-6101 and GA were used as positive controls for the in vitro assay.
(§2) Cancer cell lines were obtained from Cell Bank of Shanghai, Chinese Academy of Sciences. Cells were cultured in 90% RPMI 1640 medium (GIBCO, Invitrogen Corporation, New York, NY, USA) supplemented with 10% fetal bovine serum (Sijiqing Biotechnology Co., Hangzhou, China), 100 U/mL benzyl penicillin, and 100 μg/mL streptomycin in a humidified environment with 5% CO2 at 37 °C. All the tested compounds were dissolved in DMSO at a concentration of 0.01 mol/L and stored at −4 °C.
(§3) The inhibition of tumour cell growth was measured by a modified tetrazolium (MTT) salt assay. Cells were cultured in a 96-well plate and treated with culture medium alone or different concentrations of the compounds. The cells were incubated for 72 h, and then the MTT assay reagent was added. After a 4 h incubation, the formazan product was quantitated at 570 nm. The IC50 values (the concentrations that gave rise to 50% inhibition of cell viability) were calculated using GraphPad Prism 6 using a variable slope (four parameters).

[2] = system: taxol-resistant A549 cell line (A549/taxol); experiment: MTT antiproliferative assay, A549/taxol; type: cell-based; details: Homo sapiens
Method: as §1, §2, §3

[3] = system: cisplatin-resistant A549 cell line (A549/cisplatin); experiment: MTT antiproliferative assay, A549/cisplatin; type: cell-based; details: Homo sapiens, 72 h
Method: as §1, §2, §3

[4] = system: human hepatocellular carcinoma HepG2 cell line; experiment: MTT antiproliferative assay, HepG2; type: cell-based; details: 72 h
Method: as §1, §2, §3

[5] = system: human colon carcinoma HCT-116 cell line; experiment: MTT antiproliferative assay, HCT116; type: cell-based; details: 72 h
Method: as §1, §2, §3

U2OS cells = experiment: MTT antiproliferative assay, U2OS; type: cell-based; details: Homo sapiens, 72 h
[6] = logD by potentiometric titration (Gemini Profiler); type: physicochemical; details: pH 7.4; measured on Gemini Profiler instrument (pION); read-out: Log D 7.4
[7] = Aqueous solubility by HPLC; details: deionized water, thermodynamic from solid
Text: (§4) In parallel with the in vitro antitumor activity testing, the physicochemical properties of the target caged xanthone derivatives were theoretically predicted and experimentally determined in an effort to identify potential druglike compounds prior to the time-consuming and costly development and optimization of derivatives that may ultimately fail in efficacy experiments in vivo. The partition coefficient (logD) was experimentally determined on a Gemini Profiler instrument (pION, Inc., Woburn, MA, USA) by a potentiometric titration method. The polar surface area (PSA), as well as intestinal absorption level, were theoretically predicted by Accelrys Discovery Studio 4.0 (BIOVIA, San Diego, CA, USA) using the ADMET protocol. […] The permeability coefficient (Pe) was determined using a standard parallel artificial membrane permeability assay (PAMPA) on a PAMPA Explorer instrument (pION).
(§5) A HPLC system with an ultraviolet (UV) detector was used to detect the solubility of the compounds. The optimal wavelength was 290 nm. Ethanol/water (85:15) was an efficient eluent at a flow rate of 0.5 mL/min. The compounds were stirred in deionized water overnight to maximize the retention of the compounds in solution. Then, the solutions were filtered and the supernatant was used as a fluid sample for HPLC detection. The permeability (Pe) of the compounds was tested with the help of a standard PAMPA (pION). PAMPA was performed on a PAMPA Explorer instrument (pION) with the PAMPA Explorer command software (Version 3.7.4.1). The compounds were diluted to 10 mM with the system solution buffer (pH 7.4). Then, 150 μL of the diluted compound solution was transferred to a UV plate, and the UV spectrum was collected and used as a reference. Then, paint the membrane with 5 μL of gastrointestinal tract (GIT) lipid. The acceptor chamber was filled with 200 μL of acceptor solution buffer, and the donor chamber was filled with 200 μL of diluted compound solution. The PAMPA sandwich was assembled and left at 25 °C for 4 h. The UV spectra (240–500 nm) from the donor and the acceptor were collected. The permeability coefficient was calculated with the PAMPA Explorer Command software (Version 3.7.4.1) based on the area under the curve (AUC) of the reference plate, the donor plate, and the acceptor plate. The permeability coefficient of the compound was tested for four times, and the data are shown as the average values.

[8] = Parallel artificial membrane permeability assay (PAMPA)
Text: as §4
as §5, with “The PAMPA sandwich was assembled and left at 25 °C for 4 h.” left out

[9] = system: lung cancer A549 transplanted mouse model; experiment: In vivo tumor growth inhibition, intravenous administration; set-up: species or system Kunming mice; details: for Body Weight After-Dose / Inhibitory Rate / Weight of Tumor: two weeks
Method: The lung cancer A549 transplanted mouse model was employed. DDO-6101 and antitumor drug 5-fluorouracil (5-FU) were also tested for comparison.
(§6) Kunming mice with body weights of 18–22 g were transplanted with lung cancer A549 cells according to protocols of transplant tumor research, as previously reported. Twenty-four hours after tumor transplantation, animals were weighed and randomly divided into five groups. All test drugs were given […] 24 h after tumor transplantation. The treated groups were intravenously injected or administered per os different doses of test compounds, respectively. The negative control group received 0.9% normal saline. Treatments were conducted at a frequency of one dose per two days for the intravenous group or one dose per day for the per os group for two or one week, respectively. All animals were sacrificed 24 h after the final treatment. All data are presented as mean ± SD and the statistical significance was evaluated by t-test.

[10] = system: lung cancer A549 transplanted mouse model; experiment: In vivo tumor growth inhibition, per os administration; set-up: species or system Kunming mice; details: for Body Weight After-Dose / Inhibitory Rate / Weight of Tumor: 50 mg/kg daily, one week; for Body Weight Pre-Dose: 50 mg/kg
Text: Subsequently, 8g was set to determine further its in vivo efficacy with per os administration on the growth of inoculated A549 in mice using DDO-6101 as a comparison control. […] Thus, compound 8g was identified as a new and orally-active natural-product-like caged xanthone and also a promising antitumor agent for further clinical development.
as §6

[11] = A549/Taxol, MTT, 72 h, read-out: IC50 A549/Taxol

CC(C)=CCC12OC(C)(C)C3CC(C=C4C(=O)c5c(OCc6cn(CCN7CCOCC7)nn6)cccc5OC431)C2=O (centres unmarked) [Compound 8g]
IC50 [1]: 310 ± 20 nM | fold higher activity than DDO-6101 in A549 cells ([1]; from IC50 values): approximately eight-fold | IC50 [2, 11]: 420 ± 50 nM | IC50 ([2]; range over both resistant A549 lines and both compounds, read-out: IC50 values, taxol-resistant and cisplatin-resistant A549 cell lines): 330 to 550 nM | IC50 [3]: 330 ± 70 nM | IC50 [4]: 3790 ± 430 nM | IC50 [5]: 280 ± 30 nM | IC50 (U2OS cells): 950 ± 210 nM | logD [6]: 1.3 | solubility [7]: 3020 µM (≈ 1740 µg/mL) | Papp at 4 h, 10 mM ([8]; pH 5): 51.3 ± 4.8 ×10⁻⁶ cm/s | Papp at 4 h, 10 mM ([8]; pH 6.2): 63.1 ± 5.6 ×10⁻⁶ cm/s | Papp at 4 h, 10 mM ([8]; pH 7.4): 74.4 ± 6.8 ×10⁻⁶ cm/s | Pe range ([8]; range under different pH from 5.0 to 7.4): 51.3–74.4 × 10^–6 cm/s | Body Weight Pre-Dose ([9]; 5 mg/kg): 20.80 ± 1.53 g | Body Weight After-Dose ([9]; 5 mg/kg): 28.53 ± 2.81 g | Inhibitory Rate ([9]; 5 mg/kg): 30.88% | Weight of Tumor ([9]; 5 mg/kg): 0.94 ± 0.24 ^a g | Body Weight Pre-Dose ([9]; 10 mg/kg): 21.40 ± 1.81 g | Body Weight After-Dose ([9]; 10 mg/kg): 28.08 ± 2.66 g | Inhibitory Rate ([9]; 10 mg/kg): 52.21% | Body Weight Pre-Dose ([9]; 20 mg/kg): 20.67 ± 1.30 g | Body Weight After-Dose ([9]; 20 mg/kg): 27.73 ± 2.78 g | Inhibitory Rate ([9]; 20 mg/kg): 71.32% | Weight of Tumor ([9]; 20 mg/kg): 0.40 ± 0.14 ^b g | Weight of Tumor [9]: 0.65 ± 0.17 ^b g | Body Weight After-Dose [10]: 27.73 ± 2.78 g | Inhibitory Rate [10]: 66.43% | Weight of Tumor [10]: 0.47 ± 0.12 ^a g | Body Weight Pre-Dose [10]: 20.67 ± 1.20 g

CC(C)=CCC12OC(C)(C)C3CC(C=C4C(=O)c5c(O)cccc5OC431)C2=O (centres unmarked) [DDO-6101, reference compound]
IC50 [2, 11]: 460 ± 30 nM | IC50 [4]: 2040 ± 80 nM | IC50 [5]: 710 ± 100 nM | IC50 (U2OS cells): 5350 ± 80 nM | logD [6]: 2.9 | solubility [7]: < 5 µM | Papp at 4 h, 10 mM ([8]; pH 5): 23.6 ± 5.5 ×10⁻⁶ cm/s | Papp at 4 h, 10 mM ([8]; pH 6.2): 25.8 ± 1.1 ×10⁻⁶ cm/s | Papp at 4 h, 10 mM ([8]; pH 7.4): 18 ± 3.9 ×10⁻⁶ cm/s | Body Weight Pre-Dose ([9]; 20 mg/kg): 21.13 ± 1.22 g | Body Weight After-Dose ([9]; 20 mg/kg): 27.69 ± 1.90 g | Inhibitory Rate ([9]; 20 mg/kg): 34.56% | Weight of Tumor ([9]; 20 mg/kg): 0.89 ± 0.18 ^b g | Body Weight After-Dose [10]: 26.69 ± 1.90 g | Inhibitory Rate [10]: 21.43% | Weight of Tumor [10]: 1.10 ± 0.25 ^b g | Body Weight Pre-Dose [10]: 21.13 ± 1.02 g

CC(C)=CCC12OC(C)(C)C3CC(C=C4C(=O)c5c(OCc6cn(CCCN7CCCCC7)nn6)cccc5OC431)C2=O (centres unmarked) [Compound 8f]
IC50 [1]: 1070 ± 280 nM | IC50 [2, 11]: 1290 ± 80 nM | IC50 [3]: 1320 ± 120 nM | IC50 [4]: 6300 ± 480 nM | IC50 [5]: 1390 ± 40 nM | IC50 (U2OS cells): 2070 ± 110 nM | logD [6]: 2.7 | solubility [7]: 880 µM (≈ 516 µg/mL) | Papp at 4 h, 10 mM ([8]; pH 5): 34.9 ± 3.6 ×10⁻⁶ cm/s | Papp at 4 h, 10 mM ([8]; pH 6.2): 55.1 ± 0.8 ×10⁻⁶ cm/s | Papp at 4 h, 10 mM ([8]; pH 7.4): 68.7 ± 5.3 ×10⁻⁶ cm/s | melting point: 125 to 128 °C

CC(C)=CCC12OC(C)(C)C3CC(C=C4C(=O)c5c(OCc6cn(CCN7CCCC7)nn6)cccc5OC431)C2=O (centres unmarked) [Compound 8c]
IC50 [1]: 2580 ± 390 nM | IC50 [2, 11]: 1290 ± 70 nM | IC50 [3]: 1340 ± 90 nM | IC50 [4]: 1190 ± 310 nM | IC50 [5]: 980 ± 310 nM | IC50 (U2OS cells): 2010 ± 200 nM | logD [6]: 2.2 | solubility [7]: 1400 µM (≈ 782 µg/mL) | Papp at 4 h, 10 mM ([8]; pH 5): 42.3 ± 1.5 ×10⁻⁶ cm/s | Papp at 4 h, 10 mM ([8]; pH 6.2): 75.4 ± 6.9 ×10⁻⁶ cm/s | Papp at 4 h, 10 mM ([8]; pH 7.4): 91.9 ± 6 ×10⁻⁶ cm/s | melting point: 168 to 170 °C

CC(C)=CCC12OC(C)(C)C3CC(C=C4C(=O)c5c(OCc6cn(CCCN7CCN(C)CC7)nn6)cccc5OC431)C2=O (centres unmarked) [Compound 8j]
IC50 [1]: 930 ± 80 nM | IC50 [2, 11]: 820 ± 80 nM | IC50 [3]: 1290 ± 110 nM | IC50 [4]: 2910 ± 30 nM | IC50 [5]: 1090 ± 210 nM | IC50 (U2OS cells): 5860 ± 210 nM | logD [6]: 0.7 | solubility [7]: 4020 µM (≈ 2420 µg/mL) | Papp at 4 h, 10 mM ([8]; pH 5): 9.7 ± 0.5 ×10⁻⁶ cm/s | Papp at 4 h, 10 mM ([8]; pH 6.2): 43.2 ± 0.7 ×10⁻⁶ cm/s | Papp at 4 h, 10 mM ([8]; pH 7.4): 64.9 ± 5.4 ×10⁻⁶ cm/s | melting point: 126 to 129 °C
